This is an account of results in patent publication US20190330224A1, “ACC INHIBITORS AND USES THEREOF” (Gilead Apollo, LLC, priority 2015, published 2019).

As usually defined, the IC50 is the midpoint of a concentration-inhibition curve. Usually MIC stands for the lowest concentration that inhibits growth of the organism.

In brackets after ≈: the same amount, converted by molar mass.

In one test the target is Fungal ACC2 (UniProt Q00955). The settings on record: read-out: Fungal ACC2 (IC50, in vitro ACC2 inhibition).
Sequence of Fungal ACC2 (Q00955 whole entry): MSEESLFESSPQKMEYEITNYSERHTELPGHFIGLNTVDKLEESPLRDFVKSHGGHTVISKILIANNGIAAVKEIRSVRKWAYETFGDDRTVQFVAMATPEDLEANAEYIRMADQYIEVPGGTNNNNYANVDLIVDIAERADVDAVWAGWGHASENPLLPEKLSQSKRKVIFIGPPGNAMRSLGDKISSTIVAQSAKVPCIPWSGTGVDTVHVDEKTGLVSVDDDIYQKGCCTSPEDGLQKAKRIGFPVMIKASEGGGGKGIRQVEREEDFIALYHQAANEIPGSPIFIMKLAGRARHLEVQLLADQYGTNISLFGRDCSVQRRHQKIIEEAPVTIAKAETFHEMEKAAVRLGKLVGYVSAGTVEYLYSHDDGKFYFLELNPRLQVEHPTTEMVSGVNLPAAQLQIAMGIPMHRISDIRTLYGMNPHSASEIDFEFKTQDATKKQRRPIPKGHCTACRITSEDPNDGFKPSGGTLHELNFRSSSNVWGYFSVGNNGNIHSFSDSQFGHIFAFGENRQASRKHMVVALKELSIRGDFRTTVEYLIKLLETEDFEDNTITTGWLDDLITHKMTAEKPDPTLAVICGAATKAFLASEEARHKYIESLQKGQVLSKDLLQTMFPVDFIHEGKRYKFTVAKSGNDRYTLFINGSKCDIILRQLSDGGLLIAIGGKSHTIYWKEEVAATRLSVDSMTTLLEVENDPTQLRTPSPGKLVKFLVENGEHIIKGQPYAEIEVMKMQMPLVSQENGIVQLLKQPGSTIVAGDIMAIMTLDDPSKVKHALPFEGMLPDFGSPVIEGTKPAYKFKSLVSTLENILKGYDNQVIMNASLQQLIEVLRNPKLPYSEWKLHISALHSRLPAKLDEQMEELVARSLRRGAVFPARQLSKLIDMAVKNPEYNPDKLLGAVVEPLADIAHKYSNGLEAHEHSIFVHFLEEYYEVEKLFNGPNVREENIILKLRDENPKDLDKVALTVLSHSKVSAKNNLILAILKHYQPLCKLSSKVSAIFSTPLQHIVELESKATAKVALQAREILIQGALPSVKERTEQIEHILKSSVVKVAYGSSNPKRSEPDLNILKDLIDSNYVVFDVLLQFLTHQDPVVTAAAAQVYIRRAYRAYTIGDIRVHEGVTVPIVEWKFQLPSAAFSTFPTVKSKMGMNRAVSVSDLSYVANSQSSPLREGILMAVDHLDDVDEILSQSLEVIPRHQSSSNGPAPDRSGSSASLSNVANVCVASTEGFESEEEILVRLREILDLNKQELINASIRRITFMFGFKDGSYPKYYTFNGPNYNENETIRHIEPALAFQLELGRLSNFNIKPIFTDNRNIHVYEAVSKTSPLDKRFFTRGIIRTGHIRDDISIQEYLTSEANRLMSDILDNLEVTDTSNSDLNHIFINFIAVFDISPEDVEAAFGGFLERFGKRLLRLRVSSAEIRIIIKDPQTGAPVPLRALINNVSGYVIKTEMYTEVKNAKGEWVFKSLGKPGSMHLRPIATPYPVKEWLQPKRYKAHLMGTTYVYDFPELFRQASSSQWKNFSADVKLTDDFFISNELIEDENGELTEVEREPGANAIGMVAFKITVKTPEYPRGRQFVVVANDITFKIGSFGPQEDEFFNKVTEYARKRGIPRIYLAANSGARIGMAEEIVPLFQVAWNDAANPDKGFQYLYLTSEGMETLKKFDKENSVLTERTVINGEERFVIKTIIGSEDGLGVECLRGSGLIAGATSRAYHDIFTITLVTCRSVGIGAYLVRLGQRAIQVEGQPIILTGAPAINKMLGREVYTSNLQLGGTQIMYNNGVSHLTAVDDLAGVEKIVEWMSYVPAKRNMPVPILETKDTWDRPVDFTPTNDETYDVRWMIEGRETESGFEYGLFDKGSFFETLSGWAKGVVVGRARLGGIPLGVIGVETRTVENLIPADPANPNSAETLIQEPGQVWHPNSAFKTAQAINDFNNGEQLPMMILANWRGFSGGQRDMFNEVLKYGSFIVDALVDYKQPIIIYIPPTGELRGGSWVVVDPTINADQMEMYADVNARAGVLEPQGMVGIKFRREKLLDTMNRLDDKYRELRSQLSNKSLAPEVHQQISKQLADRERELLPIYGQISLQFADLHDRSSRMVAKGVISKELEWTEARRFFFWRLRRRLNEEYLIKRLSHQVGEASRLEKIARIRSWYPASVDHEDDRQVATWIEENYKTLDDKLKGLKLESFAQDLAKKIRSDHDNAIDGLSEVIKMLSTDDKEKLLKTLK
Another test deals with Human ACC2 (Homo sapiens, UniProt O00763). Nature of the test: In vitro ACC2 inhibition assay (ADP-Glo), human ACC2. The format is biochemical. To be noted: 5 nM ACC2, 20 μM ATP, 20 μM acetyl-CoA.
Sequence of Human ACC2 (O00763 whole entry): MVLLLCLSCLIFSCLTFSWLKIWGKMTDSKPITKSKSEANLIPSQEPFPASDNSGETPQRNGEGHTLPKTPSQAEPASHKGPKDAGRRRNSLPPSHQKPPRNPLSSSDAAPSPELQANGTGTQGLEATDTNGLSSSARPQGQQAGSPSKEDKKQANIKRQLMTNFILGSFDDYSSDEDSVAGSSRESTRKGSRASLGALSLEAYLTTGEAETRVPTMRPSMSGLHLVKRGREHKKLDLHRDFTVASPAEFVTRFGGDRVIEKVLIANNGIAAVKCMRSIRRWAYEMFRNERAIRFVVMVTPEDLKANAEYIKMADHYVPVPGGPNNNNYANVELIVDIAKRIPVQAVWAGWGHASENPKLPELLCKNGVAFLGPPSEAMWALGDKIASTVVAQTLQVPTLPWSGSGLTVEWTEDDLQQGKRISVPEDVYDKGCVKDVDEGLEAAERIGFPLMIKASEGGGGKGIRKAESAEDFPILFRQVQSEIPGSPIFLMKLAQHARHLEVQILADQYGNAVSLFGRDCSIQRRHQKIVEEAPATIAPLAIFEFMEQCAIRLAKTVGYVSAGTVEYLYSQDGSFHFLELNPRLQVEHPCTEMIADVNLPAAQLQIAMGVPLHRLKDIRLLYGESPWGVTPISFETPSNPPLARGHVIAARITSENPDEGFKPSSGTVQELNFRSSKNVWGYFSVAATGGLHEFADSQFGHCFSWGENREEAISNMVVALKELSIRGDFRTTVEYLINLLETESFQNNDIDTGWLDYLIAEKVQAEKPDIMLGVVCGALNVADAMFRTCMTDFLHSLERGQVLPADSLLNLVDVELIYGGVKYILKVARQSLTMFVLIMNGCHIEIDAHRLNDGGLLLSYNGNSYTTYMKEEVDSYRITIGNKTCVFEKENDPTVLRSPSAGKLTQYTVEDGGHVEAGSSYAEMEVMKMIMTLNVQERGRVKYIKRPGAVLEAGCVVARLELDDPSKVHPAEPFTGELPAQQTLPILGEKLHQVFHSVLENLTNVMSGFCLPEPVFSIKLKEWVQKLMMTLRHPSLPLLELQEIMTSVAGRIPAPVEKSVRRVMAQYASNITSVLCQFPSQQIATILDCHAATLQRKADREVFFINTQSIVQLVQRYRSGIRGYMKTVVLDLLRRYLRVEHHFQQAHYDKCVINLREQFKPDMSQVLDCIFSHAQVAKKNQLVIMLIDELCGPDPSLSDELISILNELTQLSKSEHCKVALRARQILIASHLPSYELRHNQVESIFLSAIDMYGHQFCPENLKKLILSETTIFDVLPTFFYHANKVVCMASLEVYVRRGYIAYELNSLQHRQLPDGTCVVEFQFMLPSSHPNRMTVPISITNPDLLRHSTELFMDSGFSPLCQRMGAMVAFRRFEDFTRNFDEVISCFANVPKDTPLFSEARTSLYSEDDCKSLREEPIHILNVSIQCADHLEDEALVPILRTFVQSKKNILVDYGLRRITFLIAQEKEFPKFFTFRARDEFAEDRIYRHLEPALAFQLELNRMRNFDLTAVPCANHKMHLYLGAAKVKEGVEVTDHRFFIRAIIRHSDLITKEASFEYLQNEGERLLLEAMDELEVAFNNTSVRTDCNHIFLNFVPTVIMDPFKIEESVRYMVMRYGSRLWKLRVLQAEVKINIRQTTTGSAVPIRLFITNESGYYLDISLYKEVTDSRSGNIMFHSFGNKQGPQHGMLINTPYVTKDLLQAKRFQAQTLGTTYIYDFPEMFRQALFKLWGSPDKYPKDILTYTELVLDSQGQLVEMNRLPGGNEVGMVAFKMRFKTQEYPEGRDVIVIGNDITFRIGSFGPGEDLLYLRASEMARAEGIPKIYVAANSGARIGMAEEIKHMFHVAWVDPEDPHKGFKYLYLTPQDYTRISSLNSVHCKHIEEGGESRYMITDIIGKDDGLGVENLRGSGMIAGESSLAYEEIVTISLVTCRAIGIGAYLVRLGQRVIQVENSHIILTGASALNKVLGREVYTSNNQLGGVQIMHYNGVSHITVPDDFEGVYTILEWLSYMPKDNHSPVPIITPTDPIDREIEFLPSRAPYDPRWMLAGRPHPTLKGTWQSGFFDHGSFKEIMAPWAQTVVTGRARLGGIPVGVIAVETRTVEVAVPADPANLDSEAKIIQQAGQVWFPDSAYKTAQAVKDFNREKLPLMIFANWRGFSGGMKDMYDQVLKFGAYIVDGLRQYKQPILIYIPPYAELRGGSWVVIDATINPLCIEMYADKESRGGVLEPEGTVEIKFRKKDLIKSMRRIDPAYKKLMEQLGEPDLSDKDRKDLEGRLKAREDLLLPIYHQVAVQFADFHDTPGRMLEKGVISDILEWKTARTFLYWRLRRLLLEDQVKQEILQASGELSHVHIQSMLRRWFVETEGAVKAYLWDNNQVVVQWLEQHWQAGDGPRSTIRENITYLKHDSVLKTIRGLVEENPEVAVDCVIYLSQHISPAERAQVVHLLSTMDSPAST
In test [1] the test system is C. parapsilosis ATCC 22019. Nature of the test: Anti-Fungal Activity Assay (broth microtiter MIC), C. parapsilosis. Format: cell-based, Candida parapsilosis. The settings on record: 3 replicates, MIC recorded at 48 h; for MIC: Lodderomyces parapsilosis, ATCC22019, 48 h, read-out: MIC C. parapsilosis ATCC 22019. The essentials: (§1)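 Susceptibility testing used direct colony suspensions in RPMI 1640+MOPS from Sabouraud dextrose agar grown at 35° C. Endpoints were visual MICs at 48 h under CLSI M27-A3 microtiter conditions, plus a 24 h reading for soraphen.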

The subject of the next test is C. krusei ATCC 6258. Nature of the test: Anti-Fungal Activity Assay (broth microtiter MIC), C. krusei. Format: cell-based, Candida krusei. To be noted: 3 replicates, MIC recorded at 48 h; for MIC: Pichia kudriavzevii, ATCC6258, 48 h, read-out: MIC C. krusei ATCC 6258. The essentials:
as §1

The test system of the next test is C. albicans ATCC 90028. Nature of the test: Anti-Fungal Activity Assay (broth microtiter MIC), C. albicans. Format: cell-based, Candida albicans. The settings on record: 3 replicates, MIC recorded at 48 h; for MIC: Candida albicans, ATCC90028, 48 h, read-out: MIC C. albicans ATCC 90028. The essentials: as §1

For the molecule `COc1ccc(F)cc1[C@H](Cn1c(=O)n([C@@]2(C)CCC(=O)N(C)C2)c(=O)c2c(C)c(-n3nccn3)sc21)OCCO` [Compound I-143, 3-((S)-1,3-dimethyl-6-oxopiperidin-3-yl)-1-((R)-2-(5-fluoro-2-methoxyphenyl)-2-(2-hydroxyethoxy)ethyl)-5-methyl-6-(2H-1,2,3-triazol-2-yl)thieno[2,3-d]pyrimidine-2,4(1H,3H)-dione], the IC50 was 0.7 to 2 nM on Fungal ACC2 and 2 to 10 nM against Human ACC2. Besides, the minimal inhibitory concentration (MIC) (in test [1]; in the test on C. krusei ATCC 6258; in the test with C. albicans ATCC 90028) was 2.1 to 4 µg/mL (≈ 3.58 to 6.82 µM) each time.

On to `COCCO[C@@H](Cn1c(=O)n([C@]2(C)CCC(=O)NC2)c(=O)c2c(C)c(-n3nccn3)sc21)c1cc(F)ccc1OC` [Compound I-132, 1-((R)-2-(5-fluoro-2-methoxyphenyl)-2-(2-methoxy-ethoxy)ethyl)-5-methyl-3-((R)-3-methyl-6-oxopiperidin-3-yl)-6-(2H-1,2,3-triazol-2-yl)thieno[2,3-d]pyrimidine-2,4(1H,3H)-dione], for which the concentration for half-maximal inhibition (IC50) fell in the range of 0.7 to 2 nM on Fungal ACC2 and 10 to 100 nM against Human ACC2. Besides, the MIC (in test [1]; with C. krusei ATCC 6258; in the test with C. albicans ATCC 90028) was 2.1 to 4 µg/mL (≈ 3.58 to 6.82 µM) each time.

On to `COc1ccc(F)cc1C(=O)Cn1c(=O)n([C@H]2CCN(C)C2=O)c(=O)c2c(C)c(-n3nccn3)sc21` [Compound I-161, (S)-1-(2-(5-fluoro-2-methoxyphenyl)-2-oxoethyl)-5-methyl-3-(1-methyl-2-oxopyrrolidin-3-yl)-6-(2H-1,2,3-triazol-2-yl)thieno[2,3-d]pyrimidine-2,4(1H,3H)-dione], for which the IC50 at Fungal ACC2 was 100 to 1000 nM; against Human ACC2 it was greater than 1000 nM. For the same molecule, the MIC (in test [1]; in the test with C. krusei ATCC 6258; with C. albicans ATCC 90028) was 2.1 to 4 µg/mL (≈ 4.1 to 7.8 µM) in each case.

Turning to `CCN1CCCC(n2c(=O)c3c(C)c(-n4nccn4)sc3n(C[C@H](OC3CCOCC3)c3cc(F)ccc3OC)c2=O)C1=O` (stereo partly drawn) [Compound I-23, 3-(1-ethyl-2-oxopiperidin-3-yl)-1-((R)-2-(5-fluoro-2-methoxyphenyl)-2-((tetrahydro-2H-pyran-4-yl)oxy)ethyl)-5-methyl-6-(2H-1,2,3-triazol-2-yl)thieno[2,3-d]pyrimidine-2,4(1H,3H)-dione], the values for the half-maximal inhibitory concentration (IC50) on Fungal ACC2 and at Human ACC2 were 0.7 to 2 nM and 2 to 10 nM, respectively. For the same molecule, the minimal inhibitory concentration (MIC) (in test [1]; in the test with C. krusei ATCC 6258; in the test on C. albicans ATCC 90028) was 0.25 to 1 µg/mL (≈ 0.399 to 1.6 µM) each time.

Turning to `COc1ccc(F)cc1[C@H](Cn1c(=O)n([C@@H]2CCN(C(=O)C(C)C)C2)c(=O)c2c(C)c(-n3nccn3)sc21)OCCO` [Compound I-87, 1-((R)-2-(5-fluoro-2-methoxyphenyl)-2-(2-hydroxy-ethoxy)ethyl)-3-((R)-1-isobutyrylpyrrolidine-3-yl)-5-methyl-6-(2H-1,2,3-triazol-2-yl)thieno[2,3-d]pyrimidine-2,4(1H,3H)-dione], the half-inhibitory concentration (IC50) at Fungal ACC2 is 0.7 to 2 nM; against Human ACC2, 10 to 100 nM. In addition, the MIC (in test [1]; with C. krusei ATCC 6258; in the test with C. albicans ATCC 90028) was 2.1 to 4 µg/mL (≈ 3.5 to 6.66 µM) throughout.

On to `COc1ccc(F)cc1[C@H](Cn1c(=O)n([C@H]2CCN(C)C2=O)c(=O)c2c(C)c(-n3nccn3)sc21)OC1CCOCC1` [Compound I-35, 1-((R)-2-(5-fluoro-2-methoxyphenyl)-2-((tetrahydro-2H-pyran-4-yl)oxy)ethyl)-5-methyl-3-((S)-1-methyl-2-oxopyrrolidin-3-yl)-6-(2H-1,2,3-triazol-2-yl)thieno[2,3-d]pyrimidine-2,4(1H,3H)-dione], for which the concentration for half-maximal inhibition (IC50) fell in the range of 0.7 to 2 nM on Fungal ACC2 and 10 to 100 nM against Human ACC2. For the same molecule, the MIC (in test [1]; in the test with C. krusei ATCC 6258; in the test with C. albicans ATCC 90028) was 2.1 to 4 µg/mL (≈ 3.51 to 6.68 µM) each time.

In the case of `COc1ccc(F)cc1[C@H](Cn1c(=O)n([C@H]2CCN(C)C2=O)c(=O)c2c(C)c(-n3cccn3)sc21)O[C@H]1CC[C@@H](O)CC1` [Compound I-182], the results for the half-inhibitory concentration (IC50) on Fungal ACC2 and at Human ACC2 were 0.7 to 2 nM and 10 to 100 nM, respectively. Also, the minimum inhibitory concentration (MIC) (in test [1]; with C. krusei ATCC 6258; in the test on C. albicans ATCC 90028) was 2.1 to 4 µg/mL (≈ 3.43 to 6.54 µM) in each case.

As to `COCCO[C@@H](Cn1c(=O)n(C2CCCNC2=O)c(=O)c2c(C)c(-n3nccn3)sc21)c1cc(F)ccc1OC` (stereo partly drawn) [Compound I-13, 1-((R)-2-(5-fluoro-2-methoxyphenyl)-2-(2-methoxy-ethoxy)ethyl)-5-methyl-3-(2-oxopiperidin-3-yl)-6-(2H-1,2,3-triazol-2-yl)thieno[2,3-d]pyrimidine-2,4(1H,3H)-dione], the 50% inhibitory concentration (IC50) lay within 0.7 to 2 nM at Fungal ACC2 and 10 to 100 nM on Human ACC2. Moreover, the MIC (in test [1]; with C. krusei ATCC 6258; in the test on C. albicans ATCC 90028) was 2.1 to 4 µg/mL (≈ 3.67 to 6.99 µM) each time.

As to `COc1ccc(F)cc1[C@H](Cn1c(=O)n([C@@H]2CCCN(C)C2=O)c(=O)c2c(C)c(-n3nccn3)sc21)OC1CCOCC1` [Compound I-40, 1-((R)-2-(5-fluoro-2-methoxyphenyl)-2-((tetrahydro-2H-pyran-4-yl)oxy)ethyl)-5-methyl-3-((R)-1-methyl-2-oxopiperidin-3-yl)-6-(2H-1,2,3-triazol-2-yl)thieno[2,3-d]pyrimidine-2,4(1H,3H)-dione], the values for the IC50 on Fungal ACC2 and against Human ACC2 were 0.7 to 2 nM and 10 to 100 nM, respectively. The results for the minimal inhibitory concentration (MIC) (in test [1]; with C. krusei ATCC 6258; with C. albicans ATCC 90028) were 0.25 to 1 µg/mL (≈ 0.408 to 1.63 µM), 1.1 to 2 µg/mL (≈ 1.8 to 3.26 µM) and 1.1 to 2 µg/mL (≈ 1.8 to 3.26 µM), respectively.

`COc1ccc(F)cc1[C@H](Cn1c(=O)n([C@]2(C)CCC(=O)N(C)C2)c(=O)c2c(C)c(-n3nccn3)sc21)OCCO` [Compound I-142]: the IC50 fell in the range of 0.7 to 2 nM on Fungal ACC2 and 2 to 10 nM against Human ACC2. For the same molecule, the minimum inhibitory concentration (MIC) (in test [1]; in the test on C. krusei ATCC 6258; with C. albicans ATCC 90028) was 2.1 to 4 µg/mL (≈ 3.58 to 6.82 µM) throughout.

Consider `COc1ccc(F)cc1[C@H](Cn1c(=O)n([C@H]2CCNC2=O)c(=O)c2c(C)c(-c3ncco3)sc21)OCCO` [Compound I-68, 1-((R)-2-(5-fluoro-2-methoxyphenyl)-2-(2-hydroxy-ethoxy)ethyl)-5-methyl-6-(oxazol-2-yl)-3-((S)-2-oxopyrrolidin-3-yl)thieno[2,3-d]pyrimidine-2,4(1H,3H)-dione], for which the values for the IC50 on Fungal ACC2 and against Human ACC2 were 2 to 10 nM and 10 to 100 nM, respectively. The MIC (in test [1]; with C. krusei ATCC 6258; in the test on C. albicans ATCC 90028) was 2.1 to 4 µg/mL (≈ 3.86 to 7.35 µM) throughout.

With `COc1ccccc1[C@H](Cn1c(=O)n([C@H]2CCCN(C)C2=O)c(=O)c2c(C)c(-c3ncco3)sc21)OCCO` [Compound I-66, 1-((R)-2-(2-hydroxyethoxy)-2-(2-methoxyphenyl)ethyl)-5-methyl-3-((S)-1-methyl-2-oxopiperidin-3-yl)-6-(oxazol-2-yl)thieno[2,3-d]pyrimidine-2,4(1H,3H)-dione], the IC50 at Fungal ACC2 was 2 to 10 nM; against Human ACC2 it was 10 to 100 nM. Also, the MIC (in test [1]; in the test with C. krusei ATCC 6258; in the test on C. albicans ATCC 90028) was 2.1 to 4 µg/mL (≈ 3.79 to 7.21 µM) in each case.

Take `COc1ccc(F)cc1[C@H](COc1nc2sc(-n3nccn3)c(C)c2c(=O)n1C1CC(=O)N(C)C1)OCCO` (stereo in doubt) [Compound I-113, 2-((R)-2-(5-fluoro-2-methoxyphenyl)-2-(2-hydroxy-ethoxy)ethoxy)-5-methyl-3-((S)-1-methyl-5-oxopyrrolidin-3-yl)-6-(2H-1,2,3-triazol-2-yl)thieno[2,3-d]pyrimidin-4(3H)-one]: the results for the IC50 on Fungal ACC2 and on Human ACC2 were 10 to 100 nM and greater than 1000 nM, respectively. In test [1], the “MIC C. parapsilosis ATCC 22019” value is “C (provided an MIC of 2.1-4.0 μg/mL)”. Besides, in the test with C. krusei ATCC 6258, the “MIC C. krusei ATCC 6258” value is on record as “C (provided an MIC of 2.1-4.0 μg/mL)”. Also, the “MIC C. albicans ATCC 90028” value against C. albicans ATCC 90028 was “C (provided an MIC of 2.1-4.0 μg/mL)”.

Turning to `COCCO[C@@H](Cn1c(=O)n([C@@]2(C)CNC(=O)C2)c(=O)c2c(C)c(-n3nccn3)sc21)c1cc(F)ccc1OC` [Compound I-114, 1-((R)-2-(5-fluoro-2-methoxyphenyl)-2-(2-methoxyethoxy)ethyl)-5-methyl-3-((R)-3-methyl-5-oxopyrrolidin-3-yl)-6-(2H-1,2,3-triazol-2-yl)thieno[2,3-d]pyrimidine-2,4(1H,3H)-dione], the results for the half-inhibitory concentration (IC50) on Fungal ACC2 and against Human ACC2 were 2 to 10 nM and 10 to 100 nM, respectively. For the same molecule, the MIC (in test [1]; in the test with C. krusei ATCC 6258; with C. albicans ATCC 90028) was 2.1 to 4 µg/mL (≈ 3.67 to 6.99 µM) each time.

Take `Cc1c(-n2nccn2)sc2c1c(=O)n([C@H]1CCN(C)C1=O)c(=O)n2C[C@H](O[C@H]1CC[C@@H](O)CC1)c1cc(F)ccc1O` [Compound I-190, 1-((R)-2-(5-fluoro-2-hydroxyphenyl)-2-(((1 s, 4S)-4-hydroxycyclohexyl)oxy)ethyl)-5-methyl-3-((S)-1-methyl-2-oxopyrrolidin-3-yl)-6-(2H-1,2,3-triazol-2-yl)thieno[2,3-d]pyrimidine-2,4(1H,3H)-dione]: the values for the half-inhibitory concentration (IC50) at Fungal ACC2 and against Human ACC2 were 0.7 to 2 nM and 10 to 100 nM, respectively. The MIC (in test [1]; in the test on C. krusei ATCC 6258; in the test on C. albicans ATCC 90028) was 2.1 to 4 µg/mL (≈ 3.51 to 6.68 µM) throughout.

Regarding `COCCO[C@@H](Cn1c(=O)n([C@H]2CCN(C(=O)C(C)C)C2)c(=O)c2c(C)c(-n3nccn3)sc21)c1cc(F)ccc1OC` [Compound I-96, 1-((R)-2-(5-fluoro-2-methoxyphenyl)-2-(2-methoxy-ethoxy)ethyl)-3-((S)-1-isobutyrylpyrrolidin-3-yl)-5-methyl-6-(2H-1,2,3-triazol-2-yl)thieno[2,3-d]pyrimidine-2,4(1H,3H)-dione], the figures for the concentration for half-maximal inhibition (IC50) at Fungal ACC2 and against Human ACC2 were 2 to 10 nM and 10 to 100 nM, respectively. Also, the MIC (in test [1]; in the test on C. krusei ATCC 6258; in the test with C. albicans ATCC 90028) was 2.1 to 4 µg/mL (≈ 3.42 to 6.51 µM) each time.
